Laboratory results from ChEMBL document CHEMBL1250475, “Inhibition of monoamine oxidase by indole and benzofuran derivatives” (Eur J Med Chem, 2010).

How the values were obtained:
[1] = target: T1, Amine oxidase [flavin-containing] B (Homo sapiens, UniProt P27338); assay: Inhibition of human recombinant MAOB expressed in baculovirus infected BTI insect cells after 20 mins by spectrofluorimetric analysis
T1 sequence (P27338 whole entry): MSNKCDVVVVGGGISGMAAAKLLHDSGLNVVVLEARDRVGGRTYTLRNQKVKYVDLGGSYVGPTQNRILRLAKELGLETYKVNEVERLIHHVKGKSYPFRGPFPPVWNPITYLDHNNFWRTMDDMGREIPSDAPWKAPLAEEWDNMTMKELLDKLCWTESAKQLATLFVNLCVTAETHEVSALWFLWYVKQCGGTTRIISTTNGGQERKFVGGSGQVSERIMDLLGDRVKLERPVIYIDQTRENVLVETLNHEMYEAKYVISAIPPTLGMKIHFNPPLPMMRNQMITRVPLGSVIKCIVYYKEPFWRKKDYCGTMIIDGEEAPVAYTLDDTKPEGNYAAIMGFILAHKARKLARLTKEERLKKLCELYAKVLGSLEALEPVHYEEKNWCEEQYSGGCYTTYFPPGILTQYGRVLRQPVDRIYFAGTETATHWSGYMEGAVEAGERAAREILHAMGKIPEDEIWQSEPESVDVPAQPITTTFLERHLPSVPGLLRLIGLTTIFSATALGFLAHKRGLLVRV

[2] = target: T2, Amine oxidase [flavin-containing] A (Homo sapiens, UniProt P21397); assay: Inhibition of human recombinant MAOA expressed in baculovirus infected BTI insect cells after 20 mins by spectrofluorimetric analysis
T2 sequence (P21397 whole entry): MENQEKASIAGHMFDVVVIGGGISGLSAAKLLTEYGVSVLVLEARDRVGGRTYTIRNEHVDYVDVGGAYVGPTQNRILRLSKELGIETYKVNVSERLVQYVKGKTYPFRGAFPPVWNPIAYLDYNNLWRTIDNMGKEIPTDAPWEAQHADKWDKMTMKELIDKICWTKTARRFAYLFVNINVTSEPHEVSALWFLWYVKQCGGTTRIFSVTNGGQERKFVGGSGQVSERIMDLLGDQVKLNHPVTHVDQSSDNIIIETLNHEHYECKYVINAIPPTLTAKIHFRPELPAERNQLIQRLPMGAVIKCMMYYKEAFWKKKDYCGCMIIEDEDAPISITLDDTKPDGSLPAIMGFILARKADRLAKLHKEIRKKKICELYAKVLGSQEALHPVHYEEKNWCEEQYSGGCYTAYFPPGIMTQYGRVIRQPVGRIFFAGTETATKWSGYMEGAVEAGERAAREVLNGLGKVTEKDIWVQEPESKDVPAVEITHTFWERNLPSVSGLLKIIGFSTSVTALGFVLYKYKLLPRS

[3] = species on record: Homo sapiens; assay: Selectivity ratio of Ki for human recombinant MAOA to Ki for human recombinant MAOB
[4] = target: T1, Amine oxidase [flavin-containing] B; assay: Competitive inhibition of human recombinant MAOB expressed in baculovirus infected BTI insect cells at 0.015 to 0.06 uM by Lineweaver-Burke plot analysis
[5] = target: T1, Amine oxidase [flavin-containing] B; assay: Reversible inhibition of human recombinant MAOB expressed in baculovirus infected BTI insect cells at 2 times IC50 concentration preincubated for 60 mins measured after 15 mins; details: 0.25 h

IC50 [1] [µM] | Ki [1] [µM] | IC50 [2] [µM] | Ki [2] [µM] | Selectivity ratio [3] | inhibition (INH) [4] | inhibition (INH) [5] | SMILES
176 | 75.7 | 259 | 68.3 | 0.9 |  |  | Cc1cc2cc(NC(=O)c3cccc(S(=O)(=O)O)c3)ccc2[nH]1
0.44 | 0.19 | 3.9 | 1.03 | 5 |  |  | O=C(/C=C/c1cccc(Cl)c1)Oc1ccc2c(c1)CC(=O)O2
6.96 | 3 | 69.4 | 18.3 | 6 |  |  | Cc1cc2cc(NC(=O)C3CCCCC3)ccc2[nH]1
0.76 | 0.33 | 31 | 8.18 | 25 |  |  | Cc1cc2cc(NC(=O)c3cccc(Cl)c3)ccc2[nH]1
0.06 | 0.03 | 9.79 | 2.58 | 99 | Active | Active | Cc1cc2cc(NC(=O)c3ccc(Cl)c(Cl)c3)ccc2[nH]1
 |  | 20.8 | 5.47 |  |  |  | Cc1cc2cc(NC(=O)c3ccc[n+](C)c3)ccc2[nH]1
1.2 | 0.52 | 12.5 | 3.29 | 6 |  |  | O=C(/C=C/c1ccccc1)Oc1ccc2c(c1)CC(=O)O2
8.89 | 3.83 | 11.6 | 3.05 | 0.8 |  |  | O=C1Cc2cc(OC(=O)c3ccccc3)ccc2O1
0.99 | 0.43 | 7.66 | 2.02 | 5 |  | Active | O=C1Cc2cc(OC(=O)c3cccc(Cl)c3)ccc2O1
9.83 | 4.23 | 7.67 | 2.02 | 0.5 |  |  | Cc1cc2cc(NC(=O)/C=C/c3cccc(Cl)c3)ccc2[nH]1
18.8 | 8.01 | 663 | 175 | 22 |  |  | Cc1cc2cc(NC(=O)/C=C/c3ccccc3)ccc2[nH]1
3.84 | 1.65 | 150 | 39.5 | 24 |  |  | Cc1cc2cc(NC(=O)c3ccccc3)ccc2[nH]1
